Results: patent publication US8859546B2, “Picolinamide inhibitors of kinases” (AbbVie Inc., priority 2011, dated 2014)

biological target: T1, ALK (Homo sapiens, UniProt Q9UM73); test: ALK kinase assay (HTRF), apparent Ki; type: biochemical; conditions: apparent Ki from IC50 by Cheng-Prusoff; ALK (Millipore), 50 μM ATP; read-out: HTRF_ALK Human-Ki
T1 construct: purchased Millipore
Method: The following procedure is used to determine ALK Activity.
ALK kinase assays were conducted with the indicated final concentrations unless otherwise specified. In 384 well black plates (Axygen), 8 μl of compound (2% DMSO) was incubated with 8 μl Lck-peptide substrate (0.5 μM, biotin-Ahx-GAEEEIYAAFFA-COOH) and 8 μl of a mixture of ALK (3 nM, Millipore) and ATP (50 μM) in reaction buffer (50 mM Hepes, pH 7.4; 10 mM MgCl2; 2 mM MnCl2; 0.1 mM sodium orthovanadate; 0.01% BSA and 1 mM DTT (added fresh before assay) for 1 h at room temperature. Reactions were then quenched by the addition of 30 μl quench solution (streptavidin-allophycocyanin and Europium-cryptate PT66 monoclonal antibody in 40 mM Hepes, pH 7.4; 480 mM KF; 66 mM EDTA; 0.01% Tween-20; and 0.1% BSA) at room temperature. Plates were read 1 h after quenching on an Envision Multilaber Reader and IC50 values were calculated using a sigmoidal fit of the concentration/inhibition response curves. These values were converted to apparent Ki values using the Cheng-Prusoff relationship.
Alternatively, 4 nM ALK (Millipore) and 50 μM ATP were pre-incubated for 30 min at room temperate in 384 well plates (Corning 3676) in 2.5× reaction buffer (125 nM SEB from Cisbio Bioassays, 12.5 mM MgCl2, 5 mM MnCl2, and 2.5 mM DTT). Reactions were initiated by the addition of 4 μl ALK-ATP mixture to 2 μl compounds (2% DMSO) and 4 μl TK-substrate biotin (Cisbio Bioassays). After incubation for 1 h at room temperature, reactions were quenched in 10 μl stop buffer (Cisbio detection buffer containing Streptavididn-XL665 and Eu-Cryptate PT66 monoclonal antibody). Plates were read 1 h after quenching on an Envision Multilaber Reader and IC50 values were calculated using a sigmoidal fit of the concentration/inhibition response curves. These values were converted to apparent Ki values using the Cheng-Prusoff relationship. Results are shown in Table 1 A correlates to an Ki=<100 nM, B correlates to an Ki between 100 nM and 1 μM, C correlates to an Ki=>1 μM.

T1 sequence (Q9UM73 19-1620): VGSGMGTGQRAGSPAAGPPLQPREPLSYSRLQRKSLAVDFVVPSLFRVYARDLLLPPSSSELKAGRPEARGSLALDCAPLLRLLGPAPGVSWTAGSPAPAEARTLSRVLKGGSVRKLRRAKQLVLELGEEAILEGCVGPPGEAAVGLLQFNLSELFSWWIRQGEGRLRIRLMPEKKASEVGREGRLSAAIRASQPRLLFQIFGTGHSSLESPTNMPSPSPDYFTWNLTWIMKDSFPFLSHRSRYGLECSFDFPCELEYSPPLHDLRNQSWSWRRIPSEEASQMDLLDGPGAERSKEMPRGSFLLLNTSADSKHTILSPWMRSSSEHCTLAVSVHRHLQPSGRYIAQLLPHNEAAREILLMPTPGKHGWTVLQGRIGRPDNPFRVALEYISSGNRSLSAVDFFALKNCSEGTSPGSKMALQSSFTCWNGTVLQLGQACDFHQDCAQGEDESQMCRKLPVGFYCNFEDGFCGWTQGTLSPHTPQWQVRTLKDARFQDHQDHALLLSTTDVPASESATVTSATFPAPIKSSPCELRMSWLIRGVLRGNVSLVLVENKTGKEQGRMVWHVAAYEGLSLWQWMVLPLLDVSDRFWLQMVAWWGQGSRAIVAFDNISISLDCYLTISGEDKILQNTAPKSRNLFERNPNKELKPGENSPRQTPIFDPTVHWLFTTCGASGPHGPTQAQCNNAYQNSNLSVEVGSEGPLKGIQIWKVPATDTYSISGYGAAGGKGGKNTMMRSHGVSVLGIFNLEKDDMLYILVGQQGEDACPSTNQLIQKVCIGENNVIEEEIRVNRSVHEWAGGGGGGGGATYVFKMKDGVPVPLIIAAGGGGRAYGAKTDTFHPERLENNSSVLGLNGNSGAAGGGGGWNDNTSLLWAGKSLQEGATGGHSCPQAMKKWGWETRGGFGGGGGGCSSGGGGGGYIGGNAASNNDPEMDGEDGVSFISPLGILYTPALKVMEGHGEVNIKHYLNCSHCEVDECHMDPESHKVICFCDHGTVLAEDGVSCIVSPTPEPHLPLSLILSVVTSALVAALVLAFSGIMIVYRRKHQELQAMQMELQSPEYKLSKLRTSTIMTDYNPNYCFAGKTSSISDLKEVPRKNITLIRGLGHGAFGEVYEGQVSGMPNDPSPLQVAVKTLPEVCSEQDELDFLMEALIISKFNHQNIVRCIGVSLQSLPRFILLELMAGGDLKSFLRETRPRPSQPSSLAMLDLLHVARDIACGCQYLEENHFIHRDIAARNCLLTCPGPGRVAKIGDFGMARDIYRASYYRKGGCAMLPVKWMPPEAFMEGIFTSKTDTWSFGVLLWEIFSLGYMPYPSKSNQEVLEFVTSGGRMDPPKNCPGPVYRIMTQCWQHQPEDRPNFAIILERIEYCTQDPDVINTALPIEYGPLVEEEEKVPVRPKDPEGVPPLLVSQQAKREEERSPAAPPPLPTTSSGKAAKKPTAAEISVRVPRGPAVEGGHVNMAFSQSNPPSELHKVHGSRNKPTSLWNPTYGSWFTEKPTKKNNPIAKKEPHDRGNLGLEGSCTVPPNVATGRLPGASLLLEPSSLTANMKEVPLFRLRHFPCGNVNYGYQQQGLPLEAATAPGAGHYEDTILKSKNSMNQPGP

Row | Structure (SMILES) | Ki [µM]
1 | COc1cc(N2CCNCC2)ccc1Nc1cc(Cc2c(Cl)cccc2Cl)cnc1C(N)=O [Example 1, 5-(2,6-dichlorobenzyl)-3-{[2-methoxy-4-(piperazin-1-yl)phenyl]amino}pyridine-2-carboxamide] | < 0.1
2 | COc1cc(N2CCNCC2)ccc1Nc1cc(C(C)c2c(Cl)cccc2Cl)cnc1C(N)=O (stereo not shown) [Example 2, 5-[1-(2,6-dichlorophenyl)ethyl]-3-{[2-methoxy-4-(piperazin-1-yl)phenyl]amino}pyridine-2-carboxamide] | < 0.1
3 | CN1CCN(c2ccc(Nc3cc(Cc4ccccc4)cnc3C(N)=O)cc2)CC1 [Example 3, 5-benzyl-3-{[4-(4-methylpiperazin-1-yl)phenyl]amino}pyridine-2-carboxamide] | 0.1 to 1
4 | CN1CCN(c2cccc(Nc3cc(Cc4ccccc4)cnc3C(N)=O)c2)CC1 [Example 4, 5-benzyl-3-{[3-(4-methylpiperazin-1-yl)phenyl]amino}pyridine-2-carboxamide] | 0.1 to 1
5 | CN1CCN(c2ccc(Nc3cc(CC4CCCCC4)cnc3C(N)=O)cc2)CC1 [Example 5, 5-(cyclohexylmethyl)-3-{[4-(4-methylpiperazin-1-yl)phenyl]amino}pyridine-2-carboxamide] | 0.1 to 1
6 | CN1CCN(c2ccc(Nc3cc(-c4ccccc4)cnc3C(N)=O)cc2)CC1 [Example 6, 3-{[4-(4-methylpiperazin-1-yl)phenyl]amino}-5-phenylpyridine-2-carboxamide] | 0.1 to 1
7 | CN1CCN(c2ccc(Nc3cc(Cc4ccccc4)cnc3C(N)=O)cc2Cl)CC1 [Example 7, 5-benzyl-3-{[3-chloro-4-(4-methylpiperazin-1-yl)phenyl]amino}pyridine-2-carboxamide] | 0.1 to 1
8 | Cc1cc(Nc2cc(Cc3ccccc3)cnc2C(N)=O)ccc1N1CCN(C)CC1 [Example 8, 5-benzyl-3-{[3-methyl-4-(4-methylpiperazin-1-yl)phenyl]amino}pyridine-2-carboxamide] | > 1
9 | Cc1cc(N2CCN(C)CC2)ccc1Nc1cc(Cc2ccccc2)cnc1C(N)=O [Example 9, 5-benzyl-3-{[2-methyl-4-(4-methylpiperazin-1-yl)phenyl]amino}pyridine-2-carboxamide] | 0.1 to 1
10 | C=C(c1ccccc1)c1cnc(C(N)=O)c(Nc2ccc(N3CCN(C)CC3)cc2)c1 [Example 10, 3-{[4-(4-methylpiperazin-1-yl)phenyl]amino}-5-(1-phenylvinyl)pyridine-2-carboxamide] | 0.1 to 1
11 | CC(c1ccccc1)c1cnc(C(N)=O)c(Nc2ccc(N3CCN(C)CC3)cc2)c1 (stereo not shown) [Example 11, 3-{[4-(4-methylpiperazin-1-yl)phenyl]amino}-5-(1-phenylethyl)pyridine-2-carboxamide] | 0.1 to 1
12 | CN1CCN(c2ccc(Nc3cc(Cc4ccc(F)cc4)cnc3C(N)=O)cc2)CC1 [Example 12, 5-(4-fluorobenzyl)-3-{[4-(4-methylpiperazin-1-yl)phenyl]amino}pyridine-2-carboxamide] | 0.1 to 1
13 | CN1CCN(c2ccc(Nc3cc(Cc4ccccc4F)cnc3C(N)=O)cc2)CC1 [Example 13, 5-(2-fluorobenzyl)-3-{[4-(4-methylpiperazin-1-yl)phenyl]amino}pyridine-2-carboxamide] | < 0.1
14 | CN1CCN(c2ccc(Nc3cc(Cc4cccc(F)c4)cnc3C(N)=O)cc2)CC1 [Example 14, 5-(3-fluorobenzyl)-3-{[4-(4-methylpiperazin-1-yl)phenyl]amino}pyridine-2-carboxamide] | < 0.1
15 | CN1CCN(c2ccc(Nc3cc(Cc4c(F)cccc4F)cnc3C(N)=O)cc2)CC1 [Example 15, 5-(2,6-difluorobenzyl)-3-{[4-(4-methylpiperazin-1-yl)phenyl]amino}pyridine-2-carboxamide] | < 0.1
16 | COc1ccc(Cc2cnc(C(N)=O)c(Nc3ccc(N4CCN(C)CC4)cc3)c2)cc1 [Example 16, 5-(4-methoxybenzyl)-3-{[4-(4-methylpiperazin-1-yl)phenyl]amino}pyridine-2-carboxamide] | 0.1 to 1
17 | CN1CCN(c2ccc(Nc3cc(Cc4ccc5ccccc5c4)cnc3C(N)=O)cc2)CC1 [Example 17, 3-{[4-(4-methylpiperazin-1-yl)phenyl]amino}-5-(2-naphthylmethyl)pyridine-2-carboxamide] | > 1

Row | Structure (SMILES) | Ki [µM]
18 | CN1CCN(c2ccc(Nc3cc(Cc4cc(F)cc(F)c4)cnc3C(N)=O)cc2)CC1 [Example 18, 5-(3,5-difluorobenzyl)-3-{[4-(4-methylpiperazin-1-yl)phenyl]amino}pyridine-2-carboxamide] | < 0.1
19 | CN1CCN(c2ccc(Nc3cc(Cc4ccc(F)c(F)c4)cnc3C(N)=O)cc2)CC1 [Example 19, 5-(3,4-difluorobenzyl)-3-{[4-(4-methylpiperazin-1-yl)phenyl]amino}pyridine-2-carboxamide] | 0.1 to 1
20 | CN1CCN(c2ccc(Nc3cc(Cc4ccc(F)cc4F)cnc3C(N)=O)cc2)CC1 [Example 20, 5-(2,4-difluorobenzyl)-3-{[4-(4-methylpiperazin-1-yl)phenyl]amino}pyridine-2-carboxamide] | 0.1 to 1
21 | CN1CCN(c2ccc(Nc3cc(Cc4cc(F)ccc4F)cnc3C(N)=O)cc2)CC1 [Example 21, 5-(2,5-difluorobenzyl)-3-{[4-(4-methylpiperazin-1-yl)phenyl]amino}pyridine-2-carboxamide] | < 0.1
22 | COc1cccc(Cc2cnc(C(N)=O)c(Nc3ccc(N4CCN(C)CC4)cc3)c2)c1 [Example 22, 5-(3-methoxybenzyl)-3-{[4-(4-methylpiperazin-1-yl)phenyl]amino}pyridine-2-carboxamide] | 0.1 to 1
23 | CN1CCN(c2ccc(Nc3cc(Cc4ccccc4Cl)cnc3C(N)=O)cc2)CC1 [Example 23, 5-(2-chlorobenzyl)-3-{[4-(4-methylpiperazin-1-yl)phenyl]amino}pyridine-2-carboxamide] | 0.1 to 1
24 | CN1CCN(c2ccc(Nc3cc(Cc4cccc(Cl)c4)cnc3C(N)=O)cc2)CC1 [Example 24, 5-(3-chlorobenzyl)-3-{[4-(4-methylpiperazin-1-yl)phenyl]amino}pyridine-2-carboxamide] | 0.1 to 1
25 | CN1CCN(c2ccc(Nc3cc(Cc4ccc(Cl)cc4)cnc3C(N)=O)cc2)CC1 [Example 25, 5-(4-chlorobenzyl)-3-{[4-(4-methylpiperazin-1-yl)phenyl]amino}pyridine-2-carboxamide] | > 1
26 | Cc1cccc(Cc2cnc(C(N)=O)c(Nc3ccc(N4CCN(C)CC4)cc3)c2)c1 [Example 26, 5-(3-methylbenzyl)-3-{[4-(4-methylpiperazin-1-yl)phenyl]amino}pyridine-2-carboxamide] | 0.1 to 1
27 | Cc1ccccc1Cc1cnc(C(N)=O)c(Nc2ccc(N3CCN(C)CC3)cc2)c1 [Example 27, 5-(2-methylbenzyl)-3-{[4-(4-methylpiperazin-1-yl)phenyl]amino}pyridine-2-carboxamide] | > 1
28 | COc1ccccc1Cc1cnc(C(N)=O)c(Nc2ccc(N3CCN(C)CC3)cc2)c1 [Example 28, 5-(2-methoxybenzyl)-3-{[4-(4-methylpiperazin-1-yl)phenyl]amino}pyridine-2-carboxamide] | 0.1 to 1
29 | Cc1ccc(Cc2cnc(C(N)=O)c(Nc3ccc(N4CCN(C)CC4)cc3)c2)cc1 [Example 29, 5-(4-methylbenzyl)-3-{[4-(4-methylpiperazin-1-yl)phenyl]amino}pyridine-2-carboxamide] | 0.1 to 1
30 | CN1CCN(c2ccc(Nc3cc(Cc4c(F)cccc4Cl)cnc3C(N)=O)cc2)CC1 [Example 30, 5-(2-chloro-6-fluorobenzyl)-3-{[4-(4-methylpiperazin-1-yl)phenyl]amino}pyridine-2-carboxamide] | < 0.1
31 | CN1CCN(c2ccc(Nc3cc(Cc4c(Cl)cccc4Cl)cnc3C(N)=O)cc2)CC1 [Example 31, 5-(2,6-dichlorobenzyl)-3-{[4-(4-methylpiperazin-1-yl)phenyl]amino}pyridine-2-carboxamide] | < 0.1
32 | CN1CCN(c2ccc(Nc3cc(Cc4ccccc4-c4ccccc4)cnc3C(N)=O)cc2)CC1 [Example 32, 5-(biphenyl-2-ylmethyl)-3-{[4-(4-methylpiperazin-1-yl)phenyl]amino}pyridine-2-carboxamide] | 0.1 to 1
33 | CN1CCN(c2ccc(Nc3cc(Cc4cccc(C(F)(F)F)c4)cnc3C(N)=O)cc2)CC1 [Example 33, 3-{[4-(4-methylpiperazin-1-yl)phenyl]amino}-5-[3-(trifluoromethyl)benzyl]pyridine-2-carboxamide] | 0.1 to 1
34 | CC(c1cccc(F)c1)c1cnc(C(N)=O)c(Nc2ccc(N3CCN(C)CC3)cc2)c1 (stereo not shown) [Example 34, 5-[1-(3-fluorophenyl)ethyl]-3-{[4-(4-methylpiperazin-1-yl)phenyl]amino}pyridine-2-carboxamide] | 0.1 to 1
